Here are results for 1 molecule from patent US20020049157A1, “Use of proteasome inhibitors for treating cancer, inflammation, autoimmune disease, graft rejection and septic shock” (priority 1998, published 2002).

Each structure is given as a SMILES string.

The test system of assay [1] is Jurkat cells. In words: DNA fragmentation (DNA laddering) in Jurkat cells. The conditions noted are these: LAC 6 μM. In kind it is cell-based. How it is done:
Tonsillar T cells (A, B, and D) and Jurkat cells (C and E) were treated with LAC (10 μM for T cells and 6 μM for Jurkat cells). LAC was added at the beginning of the culture or 40 h after T cell activation as indicated. The cells were harvested at the time points as shown. They were evaluated for their viability with trypan blue exclusion (A, B, and C), and for their mode of cell death according to DNA fragmentation (D and E).
Jurkat cells were treated with LAC (6 μM) in the absence or presence of different concentrations of zVAD.fms (0.4 μM to 33.3 μM) for 6 h. The cells were harvested and their DNA was analyzed by a DNA fragmentation assay according to DNA laddering.
We next employed DNA laddering to study the mode of cell death caused by LAC, and the result of this experiment also reflected the degree of cell death after different treatments. […] After 24 h of LAC treatment, the ladders became less discrete, and this probably reflected further DNA breakdown.
The assay was performed according to a protocol described by Liu et al (Liu et al., 1997, Cell. 89:175) with some modifications. Briefly, 2-6 million cells were re-suspended in 50 μl PBS followed by 300 μl lysis buffer (100 mM Tris-HCl, pH 8.0, 5 mM EDTA, 0.2 M NaCl. 0.2% w/v SDS, and 0.2 mg/ml proteinase K). After overnight incubation at 37° C., 350 μl of 3M NaCl was added to the mixture and cell debris was removed by centrifugation at 13000 g for 20 min at room temperature. DNA in the supernatant was precipitated with an equal volume of 100% ethanol. The pellet was washed with cold 70% ethanol and then dissolved in 20 μl of TE containing 0.2 mg/ml RNase A. After incubation at 37° C. for 2 h, the DNA was resolved on 2% agarose gel and visualized with ethidium bromide staining.

In assay [2] the test system is Namalwa. Nature of the assay: Quantitative filter elution assay of DNA fragmentation in Namalwa cells. In kind it is cell-based, human. The conditions noted are these: lactacystin 0.75-10 μM; 24-96 h. How it is done: A human B cell line Namalwa was stably transfected with an anti-apoptotic Bcl-2 family member Bcl-xL, and its sensitivity to the proteasome inhibitor-induced apoptosis tested by the quantitative filter elution assay (Schmitt et al., 1998, Exp. Cell Res. 240:107), which detects DNA fragmentation during apoptosis. The wild type Namalwa and transfected Namalwa cells overexpressing Bcl-xL were pulsed with ^14C-thymidine for 24 h, and then treated with different concentrations of lactacystin (0.75 μM, 1.5 μM, 3 μM, 6 μM and 10 μM). The cells were harvested at different time intervals (24-96 h), and DNA fragmentation measured.

Assay [3] has as its system mouse lymph node cells. Nature of the assay: Aggregate formation of Con A-stimulated lymph node cells. In kind it is cell-based. The conditions noted are these: 2 μg/ml Con A plus 10 μM lactacystin; 24 h. The text has this: Cell-cell interaction is essential in antigen presentation and in T cell's help to T and B cells. The adhesion molecules are necessary to establish the cell-cell interaction. Blocking the adhesion molecules ICAM-1 and LFA-1 is known to inhibit immune responses and to suppress graft rejection. […] Therefore, inhibition of the proteasome activity will be a useful way to control undesirable immune responses during graft rejection, autoimmune diseases, and inflammation.

Assay [4] relates to CD25. In words: CD25 (IL-2Rα) upregulation by two-color flow cytometry. In kind it is cell-based, human. The conditions noted are these: PHA; LAC 10 μM added in the beginning of the culture. On the procedure:
CD25 expression on T cells was evaluated by anti-CD25-PE/anti-CD3-FITC two-color flow cytometry. Similar results were obtained in two independent experiments, and a representative one is shown. The data are presented as two color histograms in forms of contours, as well as in an overlay histogram.
In the four systems of T and B cell activation and proliferation studied in the first section, the growth promoting activity of IL-2 is indirectly (for stimulation by PHA, anti-CD3, and anti-CD28 plus ionomycin), or directly (for SAC plus IL-2) involved. We then investigated the role of proteasome in IL-2Rα expression and IL-2 production. […] Under the experimental condition used, the viability of the LAC-treated cell was reasonable (>80% at 40 h) as described in the previous section as LAC was added only once initially. Moreover, no consistent change of IL-2 production in LAC-treated cells was a functional indication that the cell viability was reasonable and is not of a concern in interpreting the data. The results from this section indicate that IL-2Rα upregulation but not IL-2 production is proteasome-dependent, and the suppressed IL-2Rα expression likely contributes to LAC's inhibitory effect on T cells activation and proliferation. The Proteasome Activity is Critically Required Between G0 and G1/S Boundary in T Cells […]

Assay [5] deals with Tonsillar T cells. In words: Electron microscopy of T cells. In kind it is cell-based, human. The conditions noted are these: LAC 10 μM, 24 h. How it is done:
A and B: Morphology of resting T cells treated with LAC. Tonsillar T cells were culture in the absence (A) or presence (B) of LAC ([…]) for 24 h, and the cells were examined by EM.
C and D: Morphology of activated T cells treated with LAC. Tonsillar T cells were first activated with PHA (2 μg/ml) for 40 h. The cells were then cultured in the absence (C) or presence (D) of LAC (10 μM) for additional 24h, and were examined with EM.
Electron microscopy was also employed to examine the mode of cell death induced by LAC. The resting T cells (cells cultured in medium, FIG. 3A), activated T cells (40 h after PHA activation, FIG. 3C), and Jurkat cells (FIG. 3E) were all healthy looking. […] The resting T cells treated with LAC (10 μM) for 24 h were still healthy (FIG. 3B).
T cells and Jurkat cells were examined by electron microscopy as described by Tsao and Duguid (Tsao et al., 1987, Exp. Cell Res. 168:365).

Turning to `CC(=O)N[C@@H](CSC(=O)[C@]1([C@@H](O)C(C)C)NC(=O)[C@H](C)[C@@H]1O)C(=O)O` [LAC, lactacystin], the “onset of DNA fragmentation” value in assay [1] is recorded as “detected as early as 6 h”. In assay [1] (after 16 h), the DNA fragmentation entry is reported as “more prominent”. Moreover, the “DNA fragmentation in Bcl-xL transfected vs wild type Namalwa cells” value in assay [2] is “demonstrably less DNA fragmentation”. Further, the aggregate formation result in assay [3] is recorded as “effectively block the aggregate formation”. Also, the “CD25 upregulation in CD3+ T cells” value in assay [4] is “significantly inhibited”. For the same molecule, the “nuclear condensation by electron microscopy” value in assay [5] (activated T cells (40 h after PHA)) was “frequently observed”. Besides, the “morphology by electron microscopy” value in assay [5] (resting T cells) was “still healthy”.
